Data on 121 molecules can be found in a melting point compilation (Tetko et al.).

Usually melting point stands for the temperature of the solid-liquid transition. Molecule `O=C(O)Cc1ccc(S(=O)(=O)N2CCCC2)s1` returned a melting point of 262 to 264 °C. Next, `Nc1ccc(F)c(S(=O)(=O)Nc2ccc(Br)cc2)c1`: 161 to 163 °C; `Cn1cnnc1Sc1ccc(N)cc1`: 153 to 157 °C; `O=C(O)Cc1cnn(-c2ccccc2)c1`: 107 to 109 °C. In turn, `c1ccc(CCNc2nc(-c3ccccc3)cs2)cc1` came in with a melting point of 115 to 117 °C. The value for `N#Cc1cc(S(=O)(=O)Cl)ccc1Cl` was 49 to 51 °C; that for `OCc1nnc(-c2ccccc2)o1` was 129 to 131 °C.

In turn, `CC(C)C(NC(=O)Cc1ccccc1)C(=O)O` (stereo unspecified) registered a melting point of 110 to 112 °C. `CC(C)c1cc(C(=O)O)nn1-c1ccccn1` had a melting point of 146 to 148 °C. Next, `CCc1cccc(Oc2ccc(F)cc2C=CC(=O)O)c1`: 106 to 108 °C. Next, `Cc1cccc(C)c1NC(=O)C(=O)O`: 163 to 165 °C. As to `CCOC(=O)c1cc(C)nc(-c2ccccc2)n1`, the melting point lay in the range of 94 to 96 °C. Next, `CC(C)c1nc(C(=O)O)nn1-c1c(Cl)cccc1Cl`: 179 to 181 °C. The value for `CNS(=O)(=O)c1cccc(CN)c1` was 129 to 131 °C; that for `O=C(O)Cc1csc(NC(=O)c2ccccc2I)n1` was 167 to 169 °C; that for `NC1CCCCC1Nc1cnccn1` (stereo unspecified) was 59 to 61 °C. As to `Cc1cc(O)nc(-c2ccccn2)n1`, the melting point was in the range of 114 to 116 °C. Molecule `COc1cc2c(c(OC)c1OC)CCNCC2` gave a melting point of 60 to 62 °C. The value for `CCCOc1ccc(C(N)=S)cc1` was 142 to 144 °C; that for `NC(=O)CCSc1ccc(F)cc1` was 119 to 121 °C.

`CC1=CC(=C2Nc3cc(F)ccc3N2C(C)C)C=CC1=N` came in with a melting point of 136 to 138 °C. For `CC1CC(C)CN(c2ccc(C(=O)O)cc2[N+](=O)[O-])C1` (stereo unspecified), the melting point fell in the range of 167 to 169 °C. In turn, `COc1ccc(NC(=O)Nc2ccc(OC)nc2)cn1` returned a melting point of 215 to 217 °C.

In turn, `O=C(O)CCc1cscn1` had a melting point of 156 to 158 °C. Next, `Cc1nc2cc(N)ccc2o1`: 72 to 74 °C; `OCc1cn(-c2ccccc2)nc1-c1cccs1`: 115 to 117 °C. In turn, `COc1ccc(CNc2nccs2)c(OC)c1` displayed a melting point of 112 to 114 °C. The value for `Cn1c(S)nc2cc(S(N)(=O)=O)ccc21` was 313 to 315 °C; that for `O=C(O)C1CCCN1C(=O)c1ccncc1` (stereo unspecified) was 79 to 81 °C; that for `O=C(O)C1CC(c2ccc(Cl)cc2)C1` (stereo unspecified) was 119 to 121 °C. Consider `CC(C)Sc1ccc([N+](=O)[O-])cc1C(=O)O`, for which the melting point was in the range of 184 to 186 °C. The value for `COc1ccc(-n2nc(C(=O)O)cc2C)cc1` was 149 to 151 °C; that for `CC(=N\O)/C(C)=N/O` was 240 to 241 °C; that for `COC(=O)c1c(-c2cnn(C)c2)csc1N` was 128 to 130 °C. The value for `CC(=O)NC(Cc1c[nH]c2cc(F)ccc12)C(=O)O` (stereo unspecified) was 181 to 183 °C; that for `Ic1nnc(-c2ccccc2)s1` was 105 to 107 °C; that for `Nc1cccnc1-n1ccnc1` was 215 to 217 °C.

Regarding `CN(C)C(C)(C(=O)O)c1ccc(F)cc1` (stereo unspecified), the melting point was 234 to 236 °C. Next, `Cc1ccc(-c2nc(C(=O)O)cs2)n1C`: 139 to 141 °C. The value for `CCOC(=O)c1c(C)c2c(=O)[nH]nc(S)n2c1C` was 218 to 220 °C.

For the molecule `Cc1ccc(-c2nn(-c3ccccc3)cc2C(=O)O)o1`, the melting point fell in the range of 160 to 163 °C.

Take `O=Cc1c[nH]c2cc(Cl)ccc12`: the melting point lay in the range of 209 to 211 °C. Turning to `CC1(C)CCC(C)(O)CC1`, the melting point is 49 to 51 °C. The value for `O=c1c2ccccc2nc(S)n1Cc1ccc(Cl)cc1` was 221 to 223 °C; that for `Sc1nc2ccccc2n1C1CCCCC1` was 178 to 182 °C; that for `O=C1NCCCCC1Oc1ccc(Br)cc1` (stereo unspecified) was 176 to 178 °C. Next, `COC(=O)C1CC(O)CN1C(=O)c1ccc(F)cc1` (stereo unspecified): 150 to 152 °C. The value for `COC(=O)c1cc(N)cc([N+](=O)[O-])c1` was 159 to 161 °C. For `CNc1ccc(Oc2ccccn2)cc1`, the melting point lay within 126 to 128 °C. The value for `CCc1nnc(S)n1C` was 138 to 140 °C; that for `NC(C(=O)O)(c1cccc(C(F)(F)F)c1)C(F)(F)F` (stereo unspecified) was 119 to 121 °C. Next, `Cc1ccc(NC(=O)NN)c(Cl)c1`: 132 to 134 °C; `COc1ccc(NC(=O)CC(C)=O)c(OC)c1`: 96 to 98 °C. Take `Nc1ccc(CN2C(=O)CSC2=O)cc1`: the melting point was in the range of 134 to 136 °C. In the case of `COC(=O)c1cc2ccc(OCc3ccccc3)cc2[nH]1`, the melting point was 136 to 138 °C.

`O=C(O)c1ccc(Oc2ccc(F)cc2F)cc1`: the melting point was 172 to 174 °C.

The molecule `NC(=O)C1CCOC1` (stereo unspecified) had a melting point of 109 to 111 °C. The value for `Nc1ccnc(C(=O)O)c1` was 198 to 200 °C. The value for `Cc1nc2[nH]cnc2cc1Br` was 197 to 199 °C; that for `CNC(C(=O)O)c1ccc(F)cc1F` (stereo unspecified) was 277 to 279 °C.

Turning to `CC1(C(=O)O)COC(=O)OC1`, the melting point was in the range of 159 to 161 °C.

The molecule `C#CCN1CCC[C@H]1C(=O)O` showed a melting point of 151 to 153 °C. The value for `O=C(O)c1cc([N+](=O)[O-])c(F)cc1Cl` was 151 to 153 °C. The molecule `NS(=O)(=O)c1ccc(OCc2ccccc2Cl)cc1` had a melting point of 179 to 181 °C.

Take `N#Cc1ccc(-n2nccc2N)cc1`: the melting point was in the range of 114 to 116 °C. For `O=C(O)CCc1nc(-c2ccc(F)cc2)no1`, the melting point lay within 150 to 152 °C.

As for `N#Cc1ccc(-n2cnc3ccccc32)cc1`, the melting point was in the range of 135 to 137 °C. Next, `Cc1noc(COc2ccc(O)cc2)n1`: 62 to 64 °C. Next, `NC(=O)C1CCC(C(F)(F)F)NC1` (stereo unspecified): 127 to 129 °C.

In turn, `Cc1noc2nc(C3CC3)cc(C(=O)O)c12` yielded a melting point of 215 to 217 °C.

Regarding `CCC(=O)c1ccc(OCC(=O)O)cc1`, the melting point was in the range of 131 to 133 °C.

For the molecule `O=C1NCC2(CCCC2)O1`, the melting point was 89 to 91 °C.

With `Nc1n[nH]c2cccc(F)c12`, the melting point is 171 to 173 °C. Molecule `CCCC(C#N)NC(=O)c1ccccc1` (stereo unspecified) gave a melting point of 89 to 91 °C. Turning to `CCCC(C)NC(=O)C(C)Cl` (stereo unspecified), the melting point lay in the range of 51 to 53 °C. `Cc1cc(C(=O)O)c(C)n1-c1ccc2c(c1)OCCO2` had a melting point of 204 to 206 °C. Next, `COC(=O)c1cccc(OC)c1O`: 65 to 68 °C; `NC(=O)Cc1ccc2c(c1)CCC2`: 166 to 168 °C. The value for `COc1ccc(/C=C/c2cc(C(=O)O)c3cc(Br)ccc3n2)cc1` was 295 to 297 °C; that for `COc1ccccc1CNCCO` was 65 to 67 °C; that for `CCCCn1c(=O)[nH]c(=O)c2cc(C(=O)O)cnc21` was 216 to 218 °C. On to `O=C1C=C(O)C(=O)c2ccccc21`, for which the melting point is 192 to 194 °C. With `Nc1ccc(N2CCOCC2)cc1C(F)(F)F`, the melting point lay in the range of 74 to 76 °C. `Cc1ccsc1-c1nnc(N)o1` yielded a melting point of 147 to 149 °C. For the molecule `CCOC(=O)Cc1c(C)nc(O)nc1C`, the melting point was 135 to 137 °C.

`O=C(O)CCSc1ccccc1Cl` returned a melting point of 92 to 102 °C. The value for `COc1cccc(C(=O)O)n1` was 133 to 135 °C; that for `CN1CCCN(c2ccc(C#N)cc2Cl)CC1` was 40 to 42 °C. Next, `Nc1ccn(CCc2ccncc2)n1`: 140 to 142 °C. Next, `CCN(CC)S(=O)(=O)c1ccc(-c2ccc(C=O)o2)cc1`: 119 to 121 °C. The molecule `CN(C)S(=O)(=O)CC(=O)O` registered a melting point of 130 to 132 °C. The value for `O=Cc1ccccc1OCC(=O)NCC1CC1` was 93 to 95 °C; that for `CN1C(=O)CNc2ccccc21` was 88 to 90 °C; that for `CC1(c2ccccn2)NC(=O)NC1=O` (stereo unspecified) was 170 to 172 °C. The value for `O=C1CCC(=O)N(c2ccc(C(=O)O)cc2)N1` was 248 to 250 °C; that for `COc1ccc2[nH]c3c(c2c1)CC1(CC3)OCCO1` was 149 to 151 °C; that for `COc1ccc(Cl)cc1-n1cc(S(=O)(=O)Cl)cn1` was 89 to 91 °C. The value for `Cc1nn(-c2ccc(F)cc2)c(Cl)c1CO` was 134 to 136 °C.

Take `O=C(O)c1nccnc1Sc1ccccc1`: the melting point is 154 to 156 °C.

Take `Cc1ccc(OCC(=O)O)c(C=O)c1`: the melting point fell in the range of 144 to 146 °C. The value for `Nc1cccc(C(=O)Nc2ccncc2)c1` was 224 to 226 °C; that for `N#CCC1CC2=C(CCCC2=O)O1` (stereo unspecified) was 104 to 106 °C; that for `Nc1c([N+](=O)[O-])c(=O)oc2ccccc12` was 259 to 261 °C. The molecule `Cc1sc(NC(=O)C2CC2)c(C(=O)O)c1C` came in with a melting point of 148 to 152 °C. The value for `Cc1cccc2nc(CCl)cc(=O)n12` was 120 to 122 °C. For `Nc1ccc(-c2ccccn2)cn1`, the melting point lay within 89 to 91 °C.

The molecule `CC(=O)c1cc(-c2ccccc2)ccc1O` displayed a melting point of 49 to 51 °C.

In turn, `CCn1c(C)nc2cc(C(=O)NN)ccc21` gave a melting point of 183 to 185 °C. The value for `CN(C)S(=O)(=O)c1ccc(C(=O)O)o1` was 177 to 179 °C.

For `CC1CCCN(c2ccccc2O)C1` (stereo unspecified), the melting point is 44 to 46 °C. Next, `N#Cc1cnn(-c2ccccc2)n1`: 90 to 92 °C; `COc1ccc2c(C)cc3nnc(S)n3c2c1`: 256 to 258 °C; `NC(=O)CCc1ccc(F)c(F)c1`: 99 to 101 °C. For the molecule `NCC1(O)CCS(=O)(=O)CC1`, the melting point lay in the range of 175 to 177 °C. The value for `NN1C(=O)NC2(CCCCC2)C1=O` was 164 to 166 °C. The value for `Cc1cn(C2CC(O)C(CO)O2)c(=O)[nH]c1=O` (stereo unspecified) was 187 to 189 °C; that for `CCn1c(SCC(=O)O)nnc1-c1cccs1` was 157 to 159 °C; that for `CC(=O)c1cccc(S(=O)(=O)N(C)C)c1` was 74 to 76 °C. For `N#CC(N)c1ccc(OCc2ccccc2)cc1` (stereo unspecified), the melting point was 111 to 113 °C. The molecule `NNc1ccc([N+](=O)[O-])cn1` showed a melting point of 194 to 196 °C.

In turn, `CC(C)CNS(=O)(=O)c1cc(C(=O)O)c(Cl)cc1Cl` yielded a melting point of 179 to 181 °C.
